Measured values from PubChem BioAssay AID2765 (Broad Institute, 2010).
Activity calls are given as the source filed them.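 The calls were made as follows: active = half-maximal concentration for the rise in caspase light signal at or below ten times the top tested dose; inconclusive = flat fit between 30% and 70% activity, or unreliable curve fit; inactive = the rest.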

Test system: MEF A1-2A-BIM cells, caspase 3/7 luminescence, 3 h
Experiment: inducers of caspase signal in A1-dependent MEFs – cell-based, luminescence, retest, A1 inhibitor project, dose response (AID 2765)

SMILES	EC50
C[C@H](CO)N1C[C@H](C)[C@H](CN(C)Cc2ccc(-c3ccccc3)cc2)Oc2ccc(NS(=O)(=O)c3ccccc3)cc2CC1=O	> 35 µM (inactive)
O=C(N/N=C\c1cccc(Cl)c1)c1ccc(Cn2cccn2)o1	> 35 µM (inactive)
Cc1cc(C)cc(NC(=O)CCN2CCCC2)c1	> 35 µM (inactive)
O=C(CN1C(=O)COc2ccccc21)NCCCN1CCc2ccccc2C1	> 35 µM (inactive)
CCOC(=O)Cc1csc(/N=C/c2c(O)n(-c3ccc(C)c(C)c3)c(=O)c3ccccc23)n1	9.23 µM
COC(=O)c1ccc(NC(=O)C2CC(=O)N(c3ccc(C)cc3)C2)cc1 (stereo unspecified)	> 35 µM (inactive)
CCOc1ccccc1CNC(=O)Cn1nc(C)c2c(C)n(-c3ccc(C)cc3)nc2c1=O	> 35 µM (inactive)
CCOC(=O)CN(Cc1ccccc1)C(=O)OC(C)(C)C	> 35 µM (inactive)
CC(C)CN(CC(C)C)C(=O)c1cc2c(=O)n3ccccc3nc2s1	> 35 µM (inactive)
CCCc1nc2cc3c(cc2[nH]1)n(C)c(=O)n3C	> 35 µM (inactive)
CSc1ccc(S(=O)(=O)N2CCC(C(=O)NCCc3ccccc3)CC2)cc1	> 35 µM (inactive)
CCN(CC(=O)Nc1c(F)cccc1F)C(=O)/C=C/c1ccc(C)cc1	> 35 µM (inactive)
Cc1ncc([N+](=O)[O-])n1Cc1cccc2ccccc12	> 35 µM (inactive)
CC1(C)CC(=O)c2cc3c(N)c(C(=O)NCc4ccccc4)sc3nc2C1	> 35 µM (inactive)
O=C(COC(=O)c1ccc(CN2CCCC2=O)cc1)Nc1ccc(F)cc1	> 35 µM (inactive)
CCOC(=O)c1cc(/C(C)=N/OC(=O)c2ccc(C(C)(C)C)cc2)on1	> 35 µM (inactive)
CCCCCCCC/C=C\CCCCCCCC(=O)O	> 35 µM (inactive)
O=C(O)C(CCCCNS(=O)(=O)c1ccc(F)cc1)NS(=O)(=O)c1ccc(F)cc1 (stereo unspecified)	> 35 µM (inactive)
CC(C)NCC(O)c1ccc(NS(C)(=O)=O)cc1 (stereo unspecified)	> 35 µM (inactive)
COc1ccc(-c2ccc3c(c2)S(=O)(=O)c2cccc(C(=O)NC[C@@H]4CCCO4)c2C3=O)cc1OC	> 35 µM (inactive)
O=C1ON=C(c2ccc(Cl)cc2)/C1=C/c1ccc(O)cc1	> 35 µM (inactive)
C#CCn1ccc(O)c(Cc2ccccc2)c1=O	> 35 µM (inactive)
Cc1ccc(C)c(N(C(=O)CCC(=O)Nc2cc(C)on2)C(C(=O)NC2CCCC2)c2ccco2)c1 (stereo unspecified)	> 35 µM (inactive)
NS(=O)(=O)c1ccc(N/N=C/c2cn(-c3ccccc3)nc2-c2ccccc2)c([N+](=O)[O-])c1	27.1 µM

SMILES	EC50
COc1ccc(N/C(=N/c2nc(C)cc(C)n2)NC(=O)Nc2ccc(Cl)c(Cl)c2)c(OC)c1	> 35 µM (inactive)
CCOC(=O)/C(=C\c1ccc(OC(F)F)cc1)C1=Nn2c(nnc2-c2ccc(Cl)cc2)SC1	6.18 µM
COc1ccc(S(=O)(=O)N2CC(O)CC2C(=O)OCC(=O)Nc2ccc(Cl)cn2)cc1 (stereo unspecified)	> 35 µM (inactive)
CCC(C)Nc1nnc(SCC(=O)c2c(N)n(C3CC3)c(=O)[nH]c2=O)s1 (stereo unspecified)	> 35 µM (inactive)
CCN(C(=O)CCN1C(=O)c2ccccc2S1(=O)=O)c1ccccc1	> 35 µM (inactive)
COc1ccc(C(=O)COC(=O)Cn2[nH]c(=O)c3ccccc3c2=O)c(OC)c1	> 35 µM (inactive)
Cc1ccc(CNC(=O)CCS(=O)(=O)c2ccc3c(c2)CC(C)N3C(=O)C2CC2)o1 (stereo unspecified)	> 35 µM (inactive)
CS(=O)(=O)c1ncc(Cl)c(C(=O)Nc2ccc(OC(F)F)cc2)n1	> 35 µM (inactive)
CCS(=O)(=O)c1ncc(Cl)c(C(=O)Nc2ccc(S(=O)(=O)N(C)c3ccccc3)cc2)n1	> 35 µM (inactive)
CCCNC(=O)C(Cc1ccccc1F)NC(=O)c1ccccn1 (stereo unspecified)	> 35 µM (inactive)
CS(=O)(=O)Nc1ccc(C2=NN(C(=O)c3cccc(F)c3)C(c3cccs3)C2)cc1 (stereo unspecified)	> 35 µM (inactive)
O=C1/C(=C/c2ccc(N3CCOCC3)o2)SC(=Nc2ccccc2)N1CCc1c[nH]c2ccccc12	9.16 µM
CC1CCCCC12NC(=O)N(CC(=O)c1ccc(Cl)s1)C2=O (stereo unspecified)	> 35 µM (inactive)
COc1cccc(CNC(=O)CN2C(=O)COc3ccc(S(=O)(=O)N4CCCCCC4)cc32)c1	> 35 µM (inactive)
O=C(c1cc2sccc2n1Cc1ccc(F)cc1)N1CCCc2ccccc21	> 35 µM (inactive)
S=C(NCCc1ccccc1)NC1CCCCCC1	> 35 µM (inactive)
COC(=O)c1cc(CNC(=O)CC(C)c2ccccc2)ccc1OC (stereo unspecified)	> 35 µM (inactive)
O=C(COc1ccc(/C=N/NC(=O)c2cc3ccccc3o2)cc1Cl)Nc1ccccc1	6.55 µM
COC(=O)C1=C(c2ccc(F)cc2F)C[C@@H]2CC[C@H]1N2C(=O)N1CCC(O)CC1	> 35 µM (inactive)
CNC(C)C(=O)NC(C(=O)N1CCCC1C(=O)NC1CCCc2ccccc21)C(C)C (stereo unspecified)	> 35 µM (inactive)
CCCn1c(=N)n(CCOc2ccc(OC)cc2)c2ccccc21	> 35 µM (inactive)
CN(C)S(=O)(=O)c1cccc(C(=O)Nc2n[nH]c(C(F)(F)F)n2)c1	> 35 µM (inactive)
C#CC(=O)N(c1cc(OC)ccc1OC)C(C(=O)NC1CCCC1)c1cccs1 (stereo unspecified)	> 35 µM (inactive)
O=C(NCCCN1CCCCC1)c1ccc2c(c1)NC(=O)c1ccccc1S2	> 35 µM (inactive)

SMILES	EC50
COc1ccccc1C(=O)Nc1ccnn1C1CCN(Cc2cn(C)c3ccccc23)CC1	> 35 µM (inactive)
Nc1ccc(N2CCN(Cc3ccccc3Cl)CC2)c(Cl)c1	> 35 µM (inactive)
C[C@@H]1CN([C@@H](C)CO)C(=O)c2cc(NS(=O)(=O)c3ccc(Cl)cc3)ccc2O[C@H]1CN(C)Cc1ccncc1	> 35 µM (inactive)
COCCNC(=S)N(CCc1c(C)[nH]c2ccccc12)Cc1cccnc1	> 35 µM (inactive)
CN1CCc2cccc(Cl)c2CC1	> 35 µM (inactive)
CC(C)CC(NC(=O)c1ccc(Cl)cc1)C(=O)OCC(=O)c1ccc2c(c1)NC(=O)CO2 (stereo unspecified)	5.35 µM
CC(=O)Nc1ccc([N+](=O)[O-])c(CS(=O)(=O)c2ccc(C)cc2)c1[N+](=O)[O-]	> 35 µM (inactive)
CCOC(=O)N1CCN(C(=O)c2ccc3nc(N4CCC(C)CC4)sc3c2)CC1	> 35 µM (inactive)
Cc1cc(Br)c(OCc2ccc(C(=O)N/N=C/c3ccc[nH]3)cc2)c(Br)c1	33.8 µM
COc1ccc2[nH]c(C(=O)Nc3ccc(F)cc3Br)cc2c1	> 35 µM (inactive)
Cc1ccc(S(=O)(=O)n2ccc3c(OCCOCCNCc4ccc(F)cc4)cccc32)cc1	> 35 µM (inactive)
Nc1c(C(=O)Nc2ccc(S(=O)(=O)N3CCCC3)cc2)sc2nc3ccc(OC(F)(F)F)cc3cc12	8.62 µM
O=C1NC(=O)C(c2cn(-c3ccccc3)nc2-c2ccc(F)cc2)N1 (stereo unspecified)	> 35 µM (inactive)
Cc1cc(C(=O)CCl)c(C)n1CCc1ccc(Cl)cc1	> 35 µM (inactive)
CC(C)c1ccc(NC(=S)NNC(=O)c2cccs2)cc1	> 35 µM (inactive)
COc1ccc(-c2csc(NC(=O)Cc3ccccc3F)n2)c(OC)c1	> 35 µM (inactive)
Nc1cn(C2OC(CO)C(O)C2O)c(=O)[nH]c1=O (stereo unspecified)	> 35 µM (inactive)
O=C(CSc1nc2ncc(Br)cc2[nH]1)c1ccc([N+](=O)[O-])cc1	> 35 µM (inactive)
O=C(Nc1ccccc1C(=O)N1CCCCCC1)c1ccc(Cl)cc1	> 35 µM (inactive)
COC(=O)Cn1cc(C(=O)C2CC2)c2ccccc21	> 35 µM (inactive)
CCOC(=O)C1=C(C)N(CCCC(=O)O)C(=O)NC1c1ccccc1OS(=O)(=O)c1ccc(C)cc1 (stereo unspecified)	> 35 µM (inactive)
CC(C)C[C@H](NC(=O)N1CCn2c1nc1ccccc12)C(=O)NCc1ccccc1	> 35 µM (inactive)
O=C(O)c1cccc(CSc2nc(-c3ccc(Cl)cc3)cc(C(F)(F)F)n2)c1	> 35 µM (inactive)
Cc1ccc(C(O)(CCN2CCCCC2)c2ccccc2)cc1 (stereo unspecified)	> 35 µM (inactive)

SMILES	EC50
COc1ccc(S(=O)(=O)Nc2c(NC3CCCCC3)c3ccccc3oc2=O)cc1OC	> 35 µM (inactive)
O=C(N/N=C/c1ccco1)c1cc(-c2cccc(Br)c2)nc2ccccc12	> 35 µM (inactive)
Oc1ccc(C[C@H]2CNCCN2CCCCC2CCCCC2)cc1	> 35 µM (inactive)
O=C1NC(=O)c2cc(NC(=O)C3CCCO3)ccc21 (stereo unspecified)	> 35 µM (inactive)
Cc1ccccc1/C=C/C(=O)c1ccc([N+](=O)[O-])o1	> 35 µM (inactive)
CCOC(=O)C(Cc1ccc(N)cc1)N1C(=O)c2ccccc2C1=O (stereo unspecified)	> 35 µM (inactive)
O=S(=O)(Nc1nc2ccccc2nc1Cl)c1ccc(Br)cc1	> 35 µM (inactive)
CN1CCN(CCCNC(=O)c2ccc3c(Cl)c4c(nc3c2)CCCC4)CC1	> 35 µM (inactive)
Cc1cccc(C)c1NC(=O)CS(=O)CC(=O)N1CCN(c2ccccc2)CC1 (stereo unspecified)	> 35 µM (inactive)
COc1ccc(CN2CCCCC2C)cc1C (stereo unspecified)	> 35 µM (inactive)
CC1COc2ccccc2N1C(=O)c1ccc(Cl)cc1 (stereo unspecified)	> 35 µM (inactive)
COc1ccc(CCNCC(C)c2ccccc2)cc1 (stereo unspecified)	> 35 µM (inactive)
CCCCC1CCC(C(=O)N(CC(C)C)c2c(N)n(Cc3ccccc3)c(=O)[nH]c2=O)CC1 (stereo unspecified)	5.65 µM
FC(F)(F)c1ccc(Sc2n[nH]c(C(F)(F)F)n2)nc1	> 35 µM (inactive)
CC1=C/C(=N\OS(=O)(=O)c2ccccc2)C(C)=CC1=O	> 35 µM (inactive)
COc1cc(/C=C2/C(=N)N3C=CSC3=NC2=O)ccc1OCCCOc1cc(C)ccc1C	7.28 µM
C=CCOc1c2ccc(C(=O)N(CC)c3ccc(OC)cc3)cc2nn1C	> 35 µM (inactive)
CCN(CC)CCSc1nnc2c3ccccc3n(Cc3ccccc3)c2n1	> 35 µM (inactive)
CCC(C)[C@@H](C(=O)NCC1CCC(C(=O)O)CC1)n1nnc2ccccc2c1=O (stereo partly specified)	> 35 µM (inactive)
COc1ccccc1C(=O)NC(=O)COC(=O)CCS(=O)(=O)c1ccc(C)cc1	> 35 µM (inactive)
Cc1ccc(NC(=O)CSc2nnc(C)n2-c2ccccc2)cc1	> 35 µM (inactive)
O=C(NCc1ccc2c(c1)OCO2)C1CCN(c2ncccn2)CC1	> 35 µM (inactive)
CN(C)c1ccc(NC(=O)C2CCCN(S(=O)(=O)c3ccccc3)C2)cc1 (stereo unspecified)	> 35 µM (inactive)
CC/C(=C1/C(=O)CC(C)(C)C(C(=O)OC)C1=O)N1CCCC1 (stereo unspecified)	> 35 µM (inactive)
